# Experimental data as given in ChEMBL document CHEMBL1126425, “A partial pharmacophore for the platelet activating factor (PAF) receptor” (Bioorg Med Chem Lett, 1992).
# Molecular target: Platelet-activating factor receptor (Homo sapiens, UniProt P25105)
# Assay: Antagonistic activity for inhibition of [3H]PAF receptor binding to washed human platelet membranes.
# Sequence of Platelet-activating factor receptor (P25105 whole entry): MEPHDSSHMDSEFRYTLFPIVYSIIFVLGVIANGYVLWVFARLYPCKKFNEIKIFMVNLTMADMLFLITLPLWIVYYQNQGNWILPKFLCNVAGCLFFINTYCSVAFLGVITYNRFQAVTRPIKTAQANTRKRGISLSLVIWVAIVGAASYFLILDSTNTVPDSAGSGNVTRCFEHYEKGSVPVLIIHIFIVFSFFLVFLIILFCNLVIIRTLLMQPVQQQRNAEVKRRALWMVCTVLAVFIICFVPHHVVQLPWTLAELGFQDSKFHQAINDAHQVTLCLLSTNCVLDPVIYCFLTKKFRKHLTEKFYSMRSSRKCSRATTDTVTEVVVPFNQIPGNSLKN
row,IC50 [nM],SMILES
1,2.3,O=C([C@@H]1CSC(c2cccnc2)N1)N1CCN(CCCc2ccccc2)CC1 (stereo partly drawn)
2,0.015,CCOC[C@H](CC(C)C)NS(=O)(=O)c1ccc(Cn2c(C)nc3cnccc32)cc1
3,500,Cc1nc2ccccc2n1Cc1ccc(C(=O)N(C)C2CCCCC2)cc1
